According to ChEMBL document CHEMBL1123344, “N-Substituted sulfonamide carbonic anhydrase inhibitors with topical effects on intraocular pressure” (J Med Chem, 1986):

How the values were obtained:
Carbonic anhydrase [1] = molecular target: Carbonic anhydrase
Carbonic anhydrase [2] = assay: Compound was evaluated for the inhibition of Carbonic anhydrase (Competitive); format: protein assay
[3] = buffer, pH 7.2
Description: Solubility, pH 7.2 phosphate buffer at 32 degree C

physchem [4] = settings: octanol/pH 7.2 phosphate buffer
Description: Compound was evaluated for Octanol/pH 7.2 phosphate buffer distribution coefficient

physchem [5] = assay: physchem
Description: Compound was evaluated for pKa

Oryctolagus cuniculus [6] = assay: Compound was evaluated for the intraocular pressure (IOP) in normal rabbits following topical dosing after 10 min; format: functional, Eye
Oryctolagus cuniculus [7] = assay: Compound was evaluated for the intraocular pressure (IOP) in normal rabbits following topical dosing after 100 min; format: functional, Eye
Oryctolagus cuniculus [8] = assay: Compound was evaluated for the intraocular pressure (IOP) in normal rabbits following topical dosing after 110 min; format: functional, Eye
Oryctolagus cuniculus [9] = assay: Compound was evaluated for the intraocular pressure (IOP) in normal rabbits following topical dosing after 120 min; format: functional, Eye
Oryctolagus cuniculus [10] = assay: Compound was evaluated for the intraocular pressure (IOP) in normal rabbits following topical dosing after 20 min; format: functional, Eye
Oryctolagus cuniculus [11] = assay: Compound was evaluated for the intraocular pressure (IOP) in normal rabbits following topical dosing after 30 min; format: functional, Eye
Oryctolagus cuniculus [12] = assay: Compound was evaluated for the intraocular pressure (IOP) in normal rabbits following topical dosing after 40 min; format: functional, Eye
Oryctolagus cuniculus [13] = assay: Compound was evaluated for the intraocular pressure (IOP) in normal rabbits following topical dosing after 50 min; format: functional, Eye
Oryctolagus cuniculus [14] = assay: Compound was evaluated for the intraocular pressure (IOP) in normal rabbits following topical dosing after 60 min; format: functional, Eye
Oryctolagus cuniculus [15] = assay: Compound was evaluated for the intraocular pressure (IOP) in normal rabbits following topical dosing after 70 min; format: functional, Eye
Oryctolagus cuniculus [16] = assay: Compound was evaluated for the intraocular pressure (IOP) in normal rabbits following topical dosing after 80 min; format: functional, Eye
Oryctolagus cuniculus [17] = assay: Compound was evaluated for the intraocular pressure (IOP) in normal rabbits following topical dosing after 90 min; format: functional, Eye
Oryctolagus cuniculus [18] = assay: Compound was evaluated for the intraocular pressure (IOP) in normal rabbits following topical dosing after 140 min; format: functional, Eye
Oryctolagus cuniculus [19] = assay: Compound was evaluated for the intraocular pressure (IOP) in normal rabbits following topical dosing after 160 min; format: functional, Eye
Oryctolagus cuniculus [20] = assay: Compound was evaluated for the intraocular pressure (IOP) in normal rabbits following topical dosing after 180 min; format: functional, Eye

Ki (Carbonic anhydrase [1]) [nM] | Papp [×10⁻⁶ cm/s] | Solubility [3] [M l-1] | logD (physchem [4]) | pKa (physchem [5]) | SMILES | IOP (Oryctolagus cuniculus [7]) [mmHg] | IOP (Oryctolagus cuniculus [9]) [mmHg] | IOP (Oryctolagus cuniculus [10]) [mmHg] | IOP (Oryctolagus cuniculus [12]) [mmHg] | IOP (Oryctolagus cuniculus [14]) [mmHg] | IOP (Oryctolagus cuniculus [16]) [mmHg] | other results
146 |  |  |  |  | CNS(=O)(=O)c1ccc([N+](=O)[O-])cc1 |  |  |  |  |  |  | 
 | 2.26 | 0.00144 | 0.32 | 7.52 | CNS(=O)(=O)c1nnc(NC(C)=O)s1 |  |  |  |  |  |  | Ki (Carbonic anhydrase [2]): 258 nM
44 |  |  |  |  | CN(O)S(=O)(=O)c1ccc([N+](=O)[O-])cc1 | -0.5 | -1 | -0.33 | -1.67 | -1.67 | -1.67 | IOP (Oryctolagus cuniculus [6]): 0.33 mmHg; IOP (Oryctolagus cuniculus [8]): -0.33 mmHg; IOP (Oryctolagus cuniculus [11]): -0.67 mmHg; IOP (Oryctolagus cuniculus [13]): -1.83 mmHg; IOP (Oryctolagus cuniculus [15]): -2 mmHg; IOP (Oryctolagus cuniculus [17]): 0.2 mmHg
 | 54.7 | 0.0223 | 1.24 | 9.95 | NS(=O)(=O)c1ccc(Cl)cc1 [P-CHLOROBENZENESULFONAMIDE] |  |  |  |  |  |  | 
107 |  |  |  |  | CN(O)S(=O)(=O)c1ccc(Cl)cc1 | 0.67 | 0.33 | 0.17 | 1 | -1.25 | 0.17 | IOP (Oryctolagus cuniculus [18]): -0.33 mmHg; IOP (Oryctolagus cuniculus [19]): -0.25 mmHg; IOP (Oryctolagus cuniculus [20]): -0.25 mmHg
584 | 65.1 | 0.0208 | 1.92 | 11 | CNS(=O)(=O)c1ccc(Cl)cc1 |  |  |  |  |  |  | 
